“Also recorded” adds a separate entry of the source. Read-outs that look alike come from different tables or passages of the source.
What was measured:
[1] = system: d-amphetamine-induced hyperactivity; experiment: d-amphetamine-induced hyperlocomotion, rodent model of mania; format: in vivo; details: mice, 20 min before d-amphetamine 3.5 mg/kg
[2] = system: immediate early gene c-fos expression in the brain; details: mouse
Description: (A) Mice were treated with a drug or vehicle solution for the control group using either intraperitoneal (i.p.), per oral (p.o.). subcutaneous (s.c.), intramuscular (i.m.) or intravenous (i.v.) delivery.
(C) After the aforementioned c-fos induction period, the mice were sacrificed and the c-fos induction was visualized using whole-brain immunostaining. The brains were then chemically cleared and imaged by light-sheet fluorescent microscopy (LSFM).
(D) The whole-brain scans are depicted as serial section datasets with an XYZ resolution of about 4×4×5 microns.
(E) The c-fos-positive cells were detected in these datasets using custom algorithms.
(F) The whole-brain distribution of the detected c-fos-positive cells was then represented in 3D as a spatial map of centroid points in the 3D space of the mouse brain.
(G) This 3D map distribution was registered to a reference mouse brain and spatially voxelized using overlapping 150-micron sphere voxels.
This method called “pharmacomapping” (implemented as a fee for service by CRO Certerra, Inc. Farmingdale, N.Y.) is based on a proprietary and largely automated drug-screening platform that comprises whole-brain detection of drug-evoked neuronal activation represented by drug-evoked expression of the immediate early gene (IEG) c-fos. Until now, the detection of c-fos as a marker of brain activation required time-consuming, laborious methods such as in situ hybridization or immunohistochemistry in brain tissue sections, followed by mounting the sections on microscopic slides, manual imaging, and largely visual quantification. Nevertheless, over the last two decades a number of studies used these methods to test drug-evoked activity in the mouse or rat brain for various psychoactive medications, including antipsychotics, antidepressants, stimulants and anxiolytics (Engber et al., 1998; Salminen et al., 1996; SEMBA et al., 1996; Slattery et al., 2005; Sumner et al., 2004).
In contrast to the older methods, the pharmacomapping method uses largely automated and standardized whole-brain immunostaining and brain clearing together with advanced microscopy (light-sheet fluorescence microscopy, LSFM), computational (e.g. machine learning) and statistical methods (FIG. 1; see, for example, the published U.S. Patent Application No. 2014/0297199, the content of which is incorporated by reference herein in its entirety). The first generation of this platform used serial two-photon tomography (STPT) as a method for imaging and c-fos-GFP mice expressing green fluorescent protein (GFP) under the control of the c-fos promoter (see, e.g., published U.S. Patent Application No. 2014/0297199, the content of which is incorporated by reference herein in its entirety).
The second generation of the pharmacomapping platform currently employed by Certerra uses whole-brain immunostaining and clearing procedure named iDISCO+ and whole-brain imaging by light-sheet fluorescence microscopy to detect c-fos-positive neurons in wild type mice (Renier et al., 2016).

[3] = cited from earlier work
[4] = cited from earlier work; remark: listed apart in the source
[5] = female mother rats; cited from earlier work

Compound: Oc1noc2c1CCNC2 [gaboxadol, 4,5,6,7-tetrahydroisoxazolo (5,4-c) pyridin-3-ol]
- moderation of d-amphetamine-induced locomotion (ambulatory counts) ([1]; gaboxadol 3 mg/kg, Anova p=0.007, Fisher's PLSD p=0.6): only modestly
- brain activation (c-fos induction) ([2]; gaboxadol 3 mg/kg alone (HED about 15 mg)): did not elicit any detectable c-fos signaling activity; also recorded: neither gaboxadol at 3 mg/kg nor lithium at 85 mg/kg alone evoked any brain activation; also recorded: nor gaboxadol at 3 mg/kg (middle row; human equivalent dose about 15 mg) induced any brain activation on their own
- brain activation (c-fos induction) ([2]; gaboxadol 6 mg/kg alone (HED about 30 mg)): moderate brain activation
- brain activation (c-fos induction) ([2]; gaboxadol 20 mg/kg (HED about 100 mg)): broad cortical activation
- adverse side-effects in clinical trials ([3]; human doses equivalent to the mouse 6 mg/kg dose): no adverse side-effects
- effects in sleep onset and sleep maintenance ([3]; insomnia, three-month efficacy study): failed to show significant effects

Compound: O=C([O-])[O-].[Li+].[Li+] [lithium, lithium carbonate]
- moderation of d-amphetamine-induced locomotion (ambulatory counts) ([1]; lithium 14.1 mg/kg): had no behavioral effect; also recorded: not moderated
- brain activation (c-fos induction) ([2]; lithium 85 mg/kg alone (HED about 425 mg)): did not elicit any detectable c-fos signaling activity; also recorded: neither gaboxadol at 3 mg/kg nor lithium at 85 mg/kg alone evoked any brain activation; also recorded: neither lithium at 85 mg/kg (top row; human equivalent dose about 425 mg), nor gaboxadol at 3 mg/kg (middle row; human equivalent dose about 15 mg) induced any brain activation on their own
- brain activation (c-fos induction) ([2]; lithium 120 mg/kg (HED about 600 mg)): modest to moderate activation of a few structures
- brain activation (c-fos induction) ([2]; lithium 150 mg/kg alone (HED about 750 mg)): modest to moderate activation of a few structures; also recorded: moderate brain activation
- brain activation (c-fos induction) ([2]; lithium 200 mg/kg alone (HED about 1000 mg)): considerably broader activation; also recorded: moderate brain activation
- brain activation (c-fos induction) ([2]; lithium 300 mg/kg (HED about 1500 mg)): prominently activated; also recorded: closely matched that of gaboxadol at 20 mg/kg; also recorded: broad activation pattern
- brain activation (c-fos induction) ([2]; lithium 400 mg/kg as printed): considerably broader activation
- people who stopped taking lithium because of adverse events ([4]; BD patients, epidemiological study (Öhlund et al., 2018)): 62%
- patients showing good long-term efficacy ([4]; BD patients, long-term maintenance (Scott et al., 2017)): approximately 30%
- lithium concentration in drinking water with anti-suicide effect ([4]; drinking water): less than 150 μg/L
- serum lithium concentration associated with mild toxicity ([4]; human): 1.2 to 2.5 mmol/L
- serum lithium concentration that can be life-threatening ([4]; human): greater than 3.5 mmol/L
- serum lithium concentration for maintenance treatment ([4]; maintenance of bipolar disorder): 0.6 to 1.0 mmol/L
- state of alertness compared to control rats fed placebo [5]: low

Compound: [6Li] [lithium-6]
- state of alertness compared to control rats fed placebo [5]: very high

— patent US20220008388A1 (Certego Therapeutics Inc., priority 2018, published 2022)
